One data set is described as follows: in vitro. The following applies: dog.
In data set [1] the test system is influenza virus A/ostrich/Denmark/725/96 (H5N2). Description: microbe, parasite or virus in culture. The following applies: for IC50: H5N2, MDCK. The data set is classed as cell-based.
The test system is the same in data set [2]. The data set is classed as cell-based.
For another data set, the system named is influenza virus. Conditions: previously reported; read-out: IC50, anti-influenza virus activity in vitro; cited from earlier work.
In data set [3] the test system is HA protein of pandemic human influenza A/H1N1 virus. The data set is classed as cell-based.
Data set [4] concerns influenza virus A/ostrich/Denmark/725/96 (H5N2). The data set is classed as cell-based. The source holds these as a separate data set.
[5] abbreviates: 72 h, read-out: IC50 (compound concentration required to inhibit virus plaque production by 50%).
The mark [6] stands for this setting: read-out: p[IC50] = −log[IC50] (converted).

Each structure is given as a SMILES string. Entries after “also recorded” stand apart in the source; their conditions may differ. Where two headings read alike, the source gives them in different places.

For `CC(=O)O[C@H]1[C@H](C)O[C@H](OC[C@H]2O[C@@H](n3ccc(=O)[nH]c3=O)[C@@H]3OC(C)(C)O[C@@H]32)C[C@@H]1O[Si](C)(C)C(C)(C)C` [Compound 1], the CC50 in “in vitro” was 193 µM. Further, the “SI (selectivity index, ratio of CC50 to IC50)” value in data set [1] is listed as 1.10. Moreover, the IC50 was 175 ± 8.22 µM in data set [1] (setting [5]) and 174 µM in data set [1] (setting [6]).
Turning to `CC1(C)O[C@@H]2[C@H](O1)[C@@H](CO[C@@H]1C[C@@H](OCc3ccccc3)[C@H](OCc3ccccc3)[C@@H](COCc3ccccc3)O1)O[C@H]2n1ccc(=O)[nH]c1=O` [Compound 3], in data set [2], the “Reduction of virus-induced cytopathic effect (antiviral activity)” value (from here on “Reduction”) was “significantly reduced the CPE”. The compound also had a CC50 in “in vitro” of 407 µM. Moreover, in data set [1], the “SI (selectivity index, ratio of CC50 to IC50)” value worked out at 4.07. Besides, the IC50 was 100 ± 9.84 µM in data set [1] (setting [5]) and 100 µM in data set [1] (setting [6]).
In turn, `CC1(C)O[C@@H]2[C@H](O1)[C@@H](CO[C@@H]1C[C@@H](OCc3ccccc3)[C@H](OCc3ccccc3)[C@@H](CO[Si](C)(C)C(C)(C)C)O1)O[C@H]2n1ccc(=O)[nH]c1=O` [Compound 5] registered a CC50 in “in vitro” of 150 µM. Besides, in data set [1], the “SI (selectivity index, ratio of CC50 to IC50)” value worked out at 1.56. Besides, the IC50 was 96 ± 7.64 µM in data set [1] (setting [5]) and 97.7 µM in data set [1] (setting [6]).
For the compound `CC1(C)O[C@@H]2[C@H](O1)[C@@H](CO[C@@H]1C[C@@H](O)[C@H](O)[C@@H](CO)O1)O[C@H]2n1ccc(=O)[nH]c1=O` [Compound 7], the CC50 in the data set “in vitro” was 828 µM. Moreover, the “Cytotoxicity (in words)” value in the data set on MDCK cells was “low”. In addition, the “SI (selectivity index, ratio of CC50 to IC50)” value in data set [1] is on record as 1.15. Besides, the IC50 is 721 ± 23.2 µM in data set [1] (setting [5]) and 724 µM in data set [1] (setting [6]).
Regarding `CC1(C)O[C@@H]2[C@H](O1)[C@@H](CO[C@@H]1C[C@@H](OCc3ccccc3)[C@H](OCc3ccccc3)[C@@H](CO)O1)O[C@H]2n1ccc(=O)n(C(=O)c2ccccc2)c1=O` [IW7, reference compound], the IC50 with influenza virus was 63 µM; in data set [1] (setting [5]), 63 ± 4.17 µM. Further, in “in vitro”, the CC50 is 123 µM. Also, the “SI (selectivity index, ratio of CC50 to IC50)” value in data set [1] is 1.95.
`CCC(CC)O[C@@H]1C=C(C(=O)O)C[C@H](N)[C@H]1NC(C)=O` [Oseltamivir carboxylate, reference compound] registered a CC50 in “in vitro” greater than 100 µM. Further, the IC50 in data set [1] (setting [5]) is roughly 0.15 µM.
`CC1(C)O[C@@H]2[C@H](O1)[C@@H](CO[C@@H]1C[C@@H](O)[C@H](O)[C@@H](CO)O1)O[C@H]2n1ccc(=O)n(Cc2ccccc2)c1=O` [Compound 8] returned a CC50 in the data set “in vitro” of 669 µM. In addition, in the data set with MDCK cells, the “Cytotoxicity (in words)” value was “low”. In addition, the “SI (selectivity index, ratio of CC50 to IC50)” value in data set [1] was found to be 1.93. For the same compound, the results for the IC50 in data set [1] (setting [5]) and in data set [1] (setting [6]) were 346 ± 10.5 µM and 347 µM, respectively.
Turning to `CC1(C)O[C@@H]2[C@H](O1)[C@@H](CO[C@@H]1C[C@@H](OCc3ccccc3)[C@H](OCc3ccccc3)[C@@H](COCc3ccccc3)O1)O[C@H]2n1ccc(=O)n(C(=O)c2ccccc2)c1=O` [Compound 4], the “Reduction” value in data set [2] was “significantly reduced the CPE”. Moreover, the CC50 in the data set “in vitro” was determined as 480 µM. The “SI (selectivity index, ratio of CC50 to IC50)” value in data set [1] stood at 4.85. Besides, the IC50 in data set [1] (setting [5]) is 99 ± 5.23 µM; in data set [1] (setting [6]), 100 µM.
Take `CC1(C)O[C@@H]2[C@H](O1)[C@@H](CO[C@@H]1C[C@@H](OCc3ccccc3)[C@H](OCc3ccccc3)[C@@H](CO[Si](C)(C)C(C)(C)C)O1)O[C@H]2n1ccc(=O)n(C(=O)c2ccccc2)c1=O` [IW3, reference compound]: the IC50 with influenza virus is 72 µM; in data set [1] (setting [5]) it was 72 ± 5.2 µM. For the same compound, the CC50 in the data set “in vitro” is 640 µM. Moreover, the “SI (selectivity index, ratio of CC50 to IC50)” value in data set [1] amounted to 8.89.
`CC(=O)OC[C@H]1OC(OC[C@H]2O[C@@H](n3ccc(=O)[nH]c3=O)[C@@H]3OC(C)(C)O[C@@H]32)C[C@@H](OC(C)=O)[C@@H]1OC(C)=O` (some centres unmarked) [Compound 6] yielded a CC50 in “in vitro” of 620 µM. Also, in data set [1], the “SI (selectivity index, ratio of CC50 to IC50)” value stood at 1.08. The IC50 was 575 ± 17.2 µM in data set [1] (setting [5]) and 575 µM in data set [1] (setting [6]).
In the case of `CC(=O)O[C@H]1[C@H](C)O[C@H](OC[C@H]2O[C@@H](n3ccc(=O)n(C(=O)c4ccccc4)c3=O)[C@@H]3OC(C)(C)O[C@@H]32)C[C@@H]1O[Si](C)(C)C(C)(C)C` [Compound 2], in data set [3], the “Mature form of HA protein” value was “not detected” and the “Yield of HA protein in infected cells” value is recorded as “reduced the formation of HA glycoprotein in a dose-dependent manner; also recorded: reduced by compound 2 in a dose-dependent manner; also recorded: dose-dependent decrease of HA glycoprotein production”. Besides, the “Reduction” value in data set [2] is listed as “significantly reduced the CPE”. Also, the “Inhibition of virus propagation depending on time of addition” value in data set [4] is listed as “inhibited the propagation of influenza virus only when it is added to the cells after viral infection”. The compound further yielded a CC50 in the data set “in vitro” of 432 µM. Moreover, in data set [1], the “Average size and plaque number” value was “markedly reduced in a dose-dependent manner”; the “SI (selectivity index, ratio of CC50 to IC50)” value is recorded as 5.27. The IC50 in data set [1] (setting [5]) was 82 ± 6.81 µM. For the same compound, the IC50 in data set [1] (setting [6]) is 81.3 µM.
Compound `O=c1ccn([C@@H]2O[C@H](CO[C@@H]3C[C@@H](O)[C@H](O)[C@@H](CO)O3)[C@@H](O)[C@H]2O)c(=O)[nH]1` [Compound 9] showed a CC50 in “in vitro” of 800 µM. Also, the “Cytotoxicity (in words)” value in the data set with MDCK cells was “low”. In data set [1], the “SI (selectivity index, ratio of CC50 to IC50)” value was found to be 1.95. The IC50 is 410 ± 11.2 µM in data set [1] (setting [5]) and 407 µM in data set [1] (setting [6]).

Source of the values: article PMC5578090, “Biological Evaluation of Uridine Derivatives of 2-Deoxy Sugars as Potential Antiviral Compounds against Influenza A Virus” (International Journal of Molecular Sciences, 2017).
